# Columns and labels:
# Format in all cases: in vivo
# [1] = system: barnyardgrass (Echinochloa crus-galli); test: Test A pre-/postemergence plant response
# Summary of the method: (§1)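 Formulated test chemicals (non-phytotoxic solvent, surfactant) were sprayed onto soil right after planting and simultaneously onto young plants at one to two leaves, 2 to 10 cm tall. Plants stayed in the greenhouse about ten days; injury was then visually scored against untreated controls, from 0 (no effect) to 100 (complete control).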
# corn (Zea mays) = test: Test A pre-/postemergence plant response
# Summary of the method: as §1
# [2] = system: giant foxtail (Setaria faberii); test: Test A pre-/postemergence plant response
# Summary of the method: as §1
# [3] = system: large crabgrass (Digitaria sanguinalis); test: Test A pre-/postemergence plant response
# Summary of the method: as §1
# [4] = system: morningglory (Ipomoea spp.); test: Test A pre-/postemergence plant response
# Summary of the method: as §1
# [5] = system: pigweed (Amaranthus retroflexus); test: Test A pre-/postemergence plant response
# Summary of the method: as §1
# [6] = system: velvetleaf (Abutilon theophrasti); test: Test A pre-/postemergence plant response
# Summary of the method: as §1
# [7] = system: wheat (Triticum aestivum); test: Test A pre-/postemergence plant response
# Summary of the method: as §1
# [8] = system: winter barley (Hordeum vulgare); test: Test B postemergence plant response; settings: for Barley plant response rating (0 to 100 scale): 0 is no effect
# Summary of the method: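 Visual ratings from 0 (no effect) to 100 (complete control), made against controls 13–15 days after treatment, kept in a greenhouse. Compounds were applied postemergence to potted plants at the 1- to 4-leaf stage (2–18 cm).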
# [9] = system: barnyardgrass (Echinochloa crus-galli); test: Test B flooded paddy test; settings: for Plant response rating, Flood, Barnyardgrass: 250 g ai/ha, flooded paddy test, visual rating on 0 to 100 scale (0 no effect, 100 complete control) after 13 to 15 days; for Plant response rating, Barnyardgrass: Flood (flooded paddy test), 62 g ai/ha, scale of 0 to 100 where 0 is no effect and 100 is complete control, 13 to 15 days
# Summary of the method: (§2)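 Greenhouse-held for 13 to 15 days, treated pots were compared visually with controls and scored 0–100 (0, no effect). Treatment had been made into paddy water kept at 3 cm above the soil, with plants at the 2-leaf stage.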
# [10] = system: ducksalad (Heteranthera limosa); test: Test B flooded paddy test; settings: for Plant response rating, Flood, Ducksalad: 250 g ai/ha, flooded paddy test, visual rating on 0 to 100 scale (0 no effect, 100 complete control) after 13 to 15 days; for Plant response rating, Ducksalad: Flood (flooded paddy test), 62 g ai/ha, scale of 0 to 100 where 0 is no effect and 100 is complete control, 13 to 15 days
# Summary of the method: as §2
# rice (Oryza sativa) = test: Test B flooded paddy test; settings: for Plant response rating, Flood, Rice: 250 g ai/ha, flooded paddy test, visual rating on 0 to 100 scale (0 no effect, 100 complete control) after 13 to 15 days; for Plant response rating, Rice: Flood (flooded paddy test), 62 g ai/ha, scale of 0 to 100 where 0 is no effect and 100 is complete control, 13 to 15 days
# Summary of the method: as §2
# [11] = system: umbrella sedge (Cyperus difformis); test: Test B flooded paddy test; settings: for Plant response rating, Flood, Sedge, Umbrella: 250 g ai/ha, flooded paddy test, visual rating on 0 to 100 scale (0 no effect, 100 complete control) after 13 to 15 days; for Plant response rating, Sedge, Umbrella: Flood (flooded paddy test), 62 g ai/ha, scale of 0 to 100 where 0 is no effect and 100 is complete control, 13 to 15 days
# Summary of the method: as §2
# [12] = Postemergence, 125 g ai/ha, 0 to 100 scale where 0 is no effect and 100 is complete control
# [13] = Postemergence, 500 g ai/ha, 0 to 100 scale, 0 = no effect, 100 = complete control, approx. ten days
# [14] = Preemergence, 125 g ai/ha, 0 to 100 scale, 0 = no effect, 100 = complete control
# [15] = Preemergence, 500 g ai/ha, visual injury, 0 to 100 scale (0 no effect, 100 complete control), approx. ten days
# [16] = 31 g ai/ha, postemergence, scale 0 to 100, 0 is no effect, 100 is complete control
# [17] = 62 g ai/ha, postemergence, 100 is complete control, 13 to 15 days
# [18] = Postemergence, 125 g ai/ha, scale 0 to 100 (0 no effect, 100 complete control)
# [19] = Postemergence, 250 g ai/ha, scale 0 to 100 (0 no effect, 100 complete control)
# [20] = Postemergence, 500 g ai/ha, visual injury, 0 to 100 scale (0 no effect, 100 complete control), approx. ten days
# [21] = Preemergence, 500 g ai/ha, 0 to 100 scale, 0 = no effect, 100 = complete control
structure (smiles),measurement,setting,value
COCC(C)n1c(-c2ccccc2)ncc(C(=O)C2=C(O)CCCC2=O)c1=O (stereo not shown) [Compound 107],"Plant response rating, Barnyardgrass",[1]; [12],90
same,"Plant response rating, Barnyardgrass",[1]; [13],90
same,"Plant response rating, Barnyardgrass",[1]; [14],40
same,"Plant response rating, Barnyardgrass",[1]; [15],90
same,"Plant response rating, Corn",corn (Zea mays); [12],0
same,"Plant response rating, Corn",corn (Zea mays); [13],50
same,"Plant response rating, Corn",corn (Zea mays); [14],20
same,"Plant response rating, Foxtail, Giant",[2]; [12],70
same,"Plant response rating, Foxtail, Giant",[2]; [13],90
same,"Plant response rating, Foxtail, Giant",[2]; [14],60
same,"Plant response rating, Foxtail, Giant",[2]; [15],90
same,"Plant response rating, Crabgrass, Large",[3]; [12],80
same,"Plant response rating, Crabgrass, Large",[3]; [13],90
same,"Plant response rating, Crabgrass, Large",[3]; [14],90
same,"Plant response rating, Crabgrass, Large",[3]; [15],100
same,"Plant response rating, Morningglory",[4]; [12],100
same,"Plant response rating, Morningglory",[4]; [13],100
same,"Plant response rating, Morningglory",[4]; [14],70
same,"Plant response rating, Morningglory",[4]; [15],100
same,"Plant response rating, Pigweed",[5]; [12],100
same,"Plant response rating, Pigweed",[5]; [13],100
same,"Plant response rating, Pigweed",[5]; [14],100
same,"Plant response rating, Pigweed",[5]; [15],100
same,"Plant response rating, Velvetleaf",[6]; [12],100
same,"Plant response rating, Velvetleaf",[6]; [13],100
same,"Plant response rating, Velvetleaf",[6]; [14],100
same,"Plant response rating, Velvetleaf",[6]; [15],100
same,"Plant response rating, Wheat",[7]; [12],0
same,"Plant response rating, Wheat",[7]; [13],10
same,"Plant response rating, Wheat",[7]; [14],0
same,"Plant response rating, Wheat",[7]; [15],0
same,"Plant response rating, Barley",[8]; [16],0
same,Barley plant response rating (0 to 100 scale),[8]; [17],5
same,"Plant response rating, Barley",[8]; [18],25
same,"Plant response rating, Barley",[8]; [19],30
same,"Plant response rating, Flood, Barnyardgrass",[9],60
same,"Plant response rating, Barnyardgrass",[9],40
same,"Plant response rating, Flood, Ducksalad",[10],40
same,"Plant response rating, Ducksalad",[10],0
same,"Plant response rating, Flood, Rice",rice (Oryza sativa),45
same,"Plant response rating, Rice",rice (Oryza sativa),20
same,"Plant response rating, Flood, Sedge, Umbrella",[11],85
same,"Plant response rating, Sedge, Umbrella",[11],60
CCCn1c(-c2cccs2)ncc(C(=O)C2=C(O)CCCC2=O)c1=O [Compound 77],"Plant response rating, Barnyardgrass",[1]; [12],80
same,"Plant response rating, Barnyardgrass",[1]; [13],90
same,"Plant response rating, Barnyardgrass",[1]; [14],20
same,"Plant response rating, Barnyardgrass",[1]; [15],50
same,"Plant response rating, Corn",corn (Zea mays); [12],0
same,"Plant response rating, Corn",corn (Zea mays); [13],20
same,"Plant response rating, Corn",corn (Zea mays); [14],0
same,"Plant response rating, Corn",corn (Zea mays); [15],0
same,"Plant response rating, Foxtail, Giant",[2]; [12],50
same,"Plant response rating, Foxtail, Giant",[2]; [13],70
same,"Plant response rating, Foxtail, Giant",[2]; [14],0
same,"Plant response rating, Foxtail, Giant",[2]; [15],20
same,"Plant response rating, Crabgrass, Large",[3]; [12],60
same,"Plant response rating, Crabgrass, Large",[3]; [13],80
same,"Plant response rating, Crabgrass, Large",[3]; [14],50
same,"Plant response rating, Crabgrass, Large",[3]; [15],90
same,"Plant response rating, Morningglory",[4]; [12],90
same,"Plant response rating, Morningglory",[4]; [13],100
same,"Plant response rating, Morningglory",[4]; [15],70
same,"Plant response rating, Pigweed",[5]; [12],100
same,"Plant response rating, Pigweed",[5]; [13],100
same,"Plant response rating, Pigweed",[5]; [14],80
same,"Plant response rating, Pigweed",[5]; [15],90
same,"Plant response rating, Velvetleaf",[6]; [12],100
same,"Plant response rating, Velvetleaf",[6]; [13],100
same,"Plant response rating, Velvetleaf",[6]; [14],70
same,"Plant response rating, Velvetleaf",[6]; [15],100
same,"Plant response rating, Wheat",[7]; [12],0
same,"Plant response rating, Wheat",[7]; [13],0
same,"Plant response rating, Wheat",[7]; [14],0
same,"Plant response rating, Wheat",[7]; [15],0
same,"Plant response rating, Barley",[8]; [16],0
same,Barley plant response rating (0 to 100 scale),[8]; [17],0
same,"Plant response rating, Barley","[8]; Postemergence, 125 g ai/ha, visual rating after 13 to 15 days, scale 0 (no effect) to 100 (complete control)",0
same,"Plant response rating, Barley",[8]; [19],0
same,"Plant response rating, Flood, Barnyardgrass",[9],65
same,"Plant response rating, Barnyardgrass",[9],30
same,"Plant response rating, Flood, Ducksalad",[10],40
same,"Plant response rating, Ducksalad",[10],30
same,"Plant response rating, Flood, Rice",rice (Oryza sativa),15
same,"Plant response rating, Rice",rice (Oryza sativa),0
same,"Plant response rating, Flood, Sedge, Umbrella",[11],40
same,"Plant response rating, Sedge, Umbrella",[11],40
COCCn1c(-c2cccc(C)c2)ncc(C(=O)C2=C(O)C3CCC(C3)C2=O)c1=O (stereo not shown) [Compound 233],"Plant response rating, Barnyardgrass",[1]; [12],90
same,Barnyardgrass plant response rating,[1]; [20],90
same,"Plant response rating, Barnyardgrass",[1]; [14],30
same,"Plant response rating, Barnyardgrass",[1]; [21],100
same,"Plant response rating, Corn",corn (Zea mays); [12],60
same,Corn plant response rating,corn (Zea mays); [20],80
same,"Plant response rating, Corn",corn (Zea mays); [14],0
same,"Plant response rating, Corn",corn (Zea mays); [21],0
same,"Plant response rating, Foxtail, Giant",[2]; [12],90
same,"Foxtail, Giant plant response rating",[2]; [20],90
same,"Plant response rating, Foxtail, Giant",[2]; [14],20
same,"Plant response rating, Foxtail, Giant",[2]; [21],80
same,"Plant response rating, Crabgrass, Large",[3]; [12],90
same,"Crabgrass, Large plant response rating",[3]; [20],90
same,"Plant response rating, Crabgrass, Large",[3]; [14],40
same,"Plant response rating, Crabgrass, Large",[3]; [21],100
same,"Plant response rating, Morningglory",[4]; [12],100
same,Morningglory plant response rating,[4]; [20],100
same,"Plant response rating, Morningglory",[4]; [14],50
same,"Plant response rating, Morningglory",[4]; [21],90
same,"Plant response rating, Pigweed",[5]; [12],100
same,Pigweed plant response rating,[5]; [20],100
same,"Plant response rating, Pigweed",[5]; [14],70
same,"Plant response rating, Pigweed",[5]; [21],100
same,"Plant response rating, Velvetleaf",[6]; [12],100
same,Velvetleaf plant response rating,[6]; [20],100
same,"Plant response rating, Velvetleaf",[6]; [14],60
same,"Plant response rating, Velvetleaf",[6]; [21],80
same,"Plant response rating, Wheat",[7]; [12],20
same,Wheat plant response rating,[7]; [20],60
same,"Plant response rating, Wheat",[7]; [14],0
same,"Plant response rating, Wheat",[7]; [21],40
same,"Plant response rating, Barley","[8]; Postemergence, 31 g ai/ha, 0 to 100 scale (0 no effect, 100 complete control)",0
same,"Plant response rating, Barley","[8]; Postemergence, 62 g ai/ha, scale 0 to 100 (0 no effect, 100 complete control)",0
same,"Plant response rating, Barley",[8]; [18],10
same,"Plant response rating, Barley","[8]; Postemergence, 250 g ai/ha, scale 0 to 100 (0 no effect, 100 complete control), 13 to 15 days",10
same,"Plant response rating, Flood, Barnyardgrass",[9],65
same,"Plant response rating, Barnyardgrass",[9],20
same,"Plant response rating, Flood, Ducksalad",[10],100
same,"Plant response rating, Ducksalad",[10],100
same,"Plant response rating, Flood, Rice",rice (Oryza sativa),50
same,"Plant response rating, Rice",rice (Oryza sativa),25
same,"Plant response rating, Flood, Sedge, Umbrella",[11],85
same,"Plant response rating, Sedge, Umbrella",[11],70

# — US8952024B2, “Herbicidal pyrimidone derivatives” (E I du Pont de Nemours and Company, priority 2009, dated 2015)
